In PubChem BioAssay (NCI):
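Protocol summary: plate cells (96-well), add compound at 5 concentrations, incubate 48 h, interpolate endpoints linearly. TGI is the concentration that stops growth completely.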

Assays:
Assay in all cases: growth of human tumour cells (NCI), 48 h
[1] = test system: 786-0 renal
[2] = test system: A498 renal
[3] = test system: A549 NSCLC
[4] = test system: ACHN renal
[5] = test system: CCRF-CEM leukemia
[6] = test system: DLD-1 colon
[7] = test system: DMS 114 small cell lung
[8] = test system: EKVX NSCLC
[9] = test system: HCC-2998 colon
[10] = test system: HCT-116 colon
[11] = test system: HOP-18 NSCLC
[12] = test system: HOP-62 NSCLC
[13] = test system: HT29 colon
[14] = test system: IGROV1 ovarian
[15] = test system: K-562 leukemia
[16] = test system: KM12 colon
[17] = test system: KM20L2 colon
[18] = test system: LXFL 529 NSCLC
[19] = test system: M14 melanoma
[20] = test system: M19-MEL melanoma
[21] = test system: MALME-3M melanoma
[22] = test system: MOLT-4 leukemia
[23] = test system: NCI-H226 lung
[24] = test system: NCI-H23 lung
[25] = test system: NCI-H460 lung
[26] = test system: NCI-H522 lung
[27] = test system: OVCAR-5 ovarian
[28] = test system: OVCAR-8 ovarian
[29] = test system: RPMI-8226 leukemia
[30] = test system: RXF 393 renal
[31] = test system: RXF-631 renal
[32] = test system: SF-268 CNS
[33] = test system: SF-295 CNS
[34] = test system: SF-539 CNS
[35] = test system: SK-MEL-2 melanoma
[36] = test system: SK-MEL-28 melanoma
[37] = test system: SK-MEL-5 melanoma
[38] = test system: SK-OV-3 ovarian
[39] = test system: SN12C renal
[40] = test system: SNB-19 CNS
[41] = test system: SNB-75 CNS
[42] = test system: SNB-78 CNS
[43] = test system: SR leukemia
[44] = test system: SW-620 colon
[45] = test system: TK-10 renal
[46] = test system: U251 CNS
[47] = test system: UACC-257 melanoma
[48] = test system: UO-31 renal
[49] = test system: XF 498 CNS
[50] = test system: COLO 205 colon
[51] = test system: DMS 273 small cell lung
[52] = test system: HCT-15 colon
[53] = test system: HL-60(TB) leukemia
[54] = test system: HOP-92 NSCLC
[55] = test system: LOX IMVI melanoma
[56] = test system: OVCAR-3 ovarian
[57] = test system: OVCAR-4 ovarian
[58] = test system: UACC-62 melanoma

## COc1ccc(CC(=O)NCCc2ccc(OC)c(OC)c2OC)cc1
[1]
  TGI: > 100 µM
[2]
  TGI: > 100 µM
[3]
  TGI: > 100 µM
[4]
  TGI: > 100 µM
[5]
  TGI: > 100 µM
[6]
  TGI: > 100 µM
[7]
  TGI: > 100 µM
[8]
  TGI: > 100 µM
[9]
  TGI: > 100 µM
[10]
  TGI: > 100 µM
[11]
  TGI: > 100 µM
[12]
  TGI: > 100 µM
[13]
  TGI: > 100 µM
[14]
  TGI: > 100 µM
[15]
  TGI: > 100 µM
[16]
  TGI: > 100 µM
[17]
  TGI: > 100 µM
[18]
  TGI: > 100 µM
[19]
  TGI: > 100 µM
[20]
  TGI: > 100 µM
[21]
  TGI: > 100 µM
[22]
  TGI: > 100 µM
[23]
  TGI: > 100 µM
[24]
  TGI: > 100 µM
[25]
  TGI: > 100 µM
[26]
  TGI: > 100 µM
[27]
  TGI: > 100 µM
[28]
  TGI: > 100 µM
[29]
  TGI: > 100 µM
[30]
  TGI: > 100 µM
[31]
  TGI: > 100 µM
[32]
  TGI: > 100 µM
[33]
  TGI: > 100 µM
[34]
  TGI: 36.7 µM
[35]
  TGI: > 100 µM
[36]
  TGI: > 100 µM
[37]
  TGI: > 100 µM
[38]
  TGI: > 100 µM
[39]
  TGI: > 100 µM
[40]
  TGI: > 100 µM
[41]
  TGI: > 100 µM
[42]
  TGI: > 100 µM
[43]
  TGI: > 100 µM
[44]
  TGI: > 100 µM
[45]
  TGI: > 100 µM
[46]
  TGI: > 100 µM
[47]
  TGI: > 100 µM
[48]
  TGI: > 100 µM
[49]
  TGI: > 100 µM

## CCOC(=O)C1(C(=O)OCC)C(C(C)(C)C)=C(C)c2ccccc21
[1]
  TGI: 29.7 µM
[3]
  TGI: > 100 µM
[4]
  TGI: 28 µM
[5]
  TGI: 40.9 µM
[50]
  TGI: 26.8 µM
[6]
  TGI: 26.4 µM
[7]
  TGI: 26.5 µM
[51]
  TGI: 25.5 µM
[8]
  TGI: 56.2 µM
[9]
  TGI: 31.2 µM
[10]
  TGI: 20.2 µM
[52]
  TGI: 28.7 µM
[53]
  TGI: 40.9 µM
[11]
  TGI: 70.2 µM
[12]
  TGI: 36.3 µM
[54]
  TGI: 16.7 µM
[13]
  TGI: 23.8 µM
[14]
  TGI: 36 µM
[15]
  TGI: 53.5 µM
[16]
  TGI: 25.9 µM
[17]
  TGI: 28.2 µM
[55]
  TGI: 25 µM
[18]
  TGI: 24.5 µM
[19]
  TGI: 39.5 µM
[20]
  TGI: 38.8 µM
[21]
  TGI: 28.9 µM
[22]
  TGI: > 100 µM
[23]
  TGI: 28.5 µM
[24]
  TGI: 30.4 µM
[25]
  TGI: 26.3 µM
[26]
  TGI: 22.2 µM
[56]
  TGI: 24.9 µM
[57]
  TGI: 45.3 µM
[27]
  TGI: 31.4 µM
[28]
  TGI: 66.1 µM
[29]
  TGI: 55.8 µM
[30]
  TGI: 26.6 µM
[31]
  TGI: 37.9 µM
[32]
  TGI: 39.1 µM
[33]
  TGI: 30.2 µM
[34]
  TGI: 32.8 µM
[35]
  TGI: 37.6 µM
[36]
  TGI: 26.2 µM
[37]
  TGI: 21.8 µM
[38]
  TGI: 69.5 µM
[39]
  TGI: 28.7 µM
[40]
  TGI: 45 µM
[41]
  TGI: 61.8 µM
[43]
  TGI: > 100 µM
[44]
  TGI: 28.8 µM
[45]
  TGI: 72.4 µM
[46]
  TGI: 30.1 µM
[47]
  TGI: 44.3 µM
[58]
  TGI: 26 µM
[48]
  TGI: 47.3 µM
[49]
  TGI: 26.3 µM
